# US9808434B2, “Compound for treating cancer and diabetes” (CITY OF HOPE, priority 2011, dated 2017)
# Experiments:
# U251 = test: Glioma ATP viability assay, U251; type: cell-based; details: Homo sapiens, U-251, 72 h
# Procedure: (§1) Cells of each cell line (U251, U87, PBT-017, PBT018, PBT003 and PBT028) were treated with various concentrations (0˜100 μM) of COH-SR4 for 72 hours. Cell viabilities were determined by ATP viability assays. Data were represented as a ratio to vehicle (DMSO) control, and plotted as mean±SEM (n=12) obtained from 2˜3 experiments (FIG. 34A).
# as §1, with “(U87, U251,” for “(U251, U87, PBT-017, PBT018,”, “PVT-017)” for “PBT028)”, “2-3” for “2˜3”, “34B).” for “34A).”
# Cells of each cell line were treated with various concentrations (0˜100 μM) of COH-SR4 or various concentrations (0˜1000 μM) of TMZ for 72 hours. Cell viabilities were determined by ATP viability assays. Data were represented as a ratio to untreated cells as control, and plotted as mean±SEM (n=12) obtained from 2˜3 experiments (FIGS. 43A-B).
# SK-MEL2 = test: Intracellular ATP production, luminescence kit; type: cell-based, human; details: 5 μM, less than 1 h
# Procedure: ATP production from cells treated with test compounds were measured using the Luminescent ATP Detection Assay Kit. AMP, ATP and ADP were measured by UV-HPLC.
# One of the consequences of mitochondria uncoupling is decrease intracellular ATP production, leading to increased AMP:ATP ratio and triggering activation of the energy-sensitive enzyme AMPK. It has been previously shown that COH-SR4 indirectly activates AMPK in a time- and dose-dependent manner in both HepG2 cells and 3T3-adipocytes. […] In melanomas, mutation rates for BRAF NRAS and LKB1 are 50-70%, 5-30%, and 10%, respectively. […] AMPK activation may cause a cell cycle arrest associated with stabilization of p53 and the cyclin-dependent kinase inhibitors p21^WAF1 and p27^CIP1.
# [1] = tested on: ACL, adiponectin, C/EBPα, Glut4, PPARγ; test: Adipogenic marker protein expression, Western blotting; type: cell-based, mouse; details: 7 days in DM + compound
# Procedure: Post-confluent 3T3-L1 preadipocytes were differentiated for 7 days in the presence of differentiating media (DM), or DM+ test compounds (LR23 (5 μM, 25 μM, or 50 μM), LR59 (5 μM, 25 μM, or 50 μM), LR-90 (25 μM), ROS (50 μM), TSA (0.5 μM) or apicidin (1 μM)). Protein levels were analyzed by Western blotting and the relative expression of each protein was quantified using a densitometer and calculated according to the reference bands of β-actin (FIG. 8). Numbers above each blot represent fold increase over control (undifferentiated preadipocytes).
# 3T3-L1 preadipocytes cells were treated with differentiating media (DM) with COH-SR4 (1 μM, 3 μM, or 5 μM) or without for 7 days. […] As used in FIG. 9C, U=undifferentiated, D=differentiated with cocktail media.
# Stat3, HIF-1α = test: Stat3 phosphorylation and HIF-1α expression in SKOV3, immunoblotting; type: cell-based, human; details: SKOV3, 24 hours, 1-10 μM
# Procedure: SKOV3 cells were incubated with various concentrations of COH-SR4 (1˜10 μM) for 24 hours. Whole-cell lysates were analyzed by immunoblotting with antibodies against phosphorylated and total form of Stat3, Akt and MAPK, and HIF-1α. GAPDH was used as a loading control.
# U251 glioma cells = test: Intracellular ROS (H2DCFDA+ cells), flow cytometry; type: cell-based; details: 2 or 10 μM, 24 hours
# Procedure: Cells of U251 glioma cells or pNHA cell lines were treated with COH-SR4 at a concentration of 0 μM, 2 μM or 10 μM for 24 hours before intracellular ROS was assessed by flow cytometry (representative of 3 runs and samples in triplicate). ROS increased in the glioma cells treated with COH-SR4 as indicated by the increased amounts of H2DCFDA+ cells (FIG. 38).
smiles,measurement,setting,value
"O=C(Nc1cc(Cl)cc(Cl)c1)Nc1cc(Cl)cc(Cl)c1 [COH-SR4, 1,3-bis(3,5-dichlorophenyl) urea]",IC50,U251; Table 1,2100 nM
same,IC50,U251; Table 2,2000 nM
same,intracellular ATP production,SK-MEL2,rapid decline
same,expression of adipogenic markers,[1],"decreased expression of key transcription factors (C/EBPα, PPARγ) and proteins (ACL, adiponectin, FAS)"
same,phosphorylation of Stat3 and HIF-1α protein expression,"Stat3, HIF-1α",inhibited phosphorylation of Stat3 protein and HIF-1α protein expression
same,intracellular ROS (H2DCFDA+ cells),U251 glioma cells,ROS increased
